Structures can show the parent of a compound that is named as a salt.
How the values were obtained:
aldose reductase = molecular target: T1, aldose reductase (Oryctolagus cuniculus, UniProt P15122); experiment: Aldose reductase inhibitory activity; type: biochemical; conditions: aldose reductase from lens of male rabbit
T1 construct: Aldose reductase was obtained from lens of male rabbit; from tissue; host or cells: lens of male rabbit (weighing 2.5-3.5 kg)
Procedure: Aldose reductase was obtained from lens of male rabbit (weighing 2.5-3.5 kg) in the same manner as described in J. Biol. Chem., Vol. 240, 877-882 (1965). The inhibitory activity of the test compounds against the aldose reductase was measured in the same manner as described in Biochim. Biophys. Acta., Vol. 128, 474-482 (1966).

ddY male mice = experiment: Acute toxicity and observation of symptoms; type: in vivo; conditions: for abnormal symptoms (dysbasia, areflexia, astasia, blepharoptosis, dyspnea, skin flush, lacrimation, etc.): mouse, in vivo, po; for mortality (acute toxicity): oral, suspension in 0.5% carboxymethyl cellulose, observed for 14 days, dose not given

| Structure (SMILES) | IC50 (aldose reductase) [nM] | abnormal symptoms (dysbasia, areflexia, astasia, blepharoptosis, dyspnea, skin flush, lacrimation, etc.) (ddY male mice) | mortality (acute toxicity) (ddY male mice) |
| --- | --- | --- | --- |
| CN1C(=O)N(C)C2(C1=O)c1ccccc1NC(=O)N2C (stereo not shown) [Test Compound 12, 3,1',3'-Trimethyl-spiro[1,2,3,4-tetrahydroquinazoline-4,4'-imidazolidine]-2,2',5'-trione, reference compound] | > 50000 |  |  |
| Cc1cc2c(cc1Cl)C1(NC(=O)NC1=O)N(C)C(=O)N2 (stereo not shown) [Test Compound 5, 6-Chloro-3,7-dimethyl-spiro[1,2,3,4-tetrahydroquinazoline-4,4'-imidazolidine]-2,2',5'-trione] | 30 |  |  |
| CN1C(=O)NC2(C1=O)c1ccccc1NC(=O)N2C (stereo not shown) [Test Compound 11, 3,1'-Dimethyl-spiro[1,2,3,4-tetrahydroquinazoline-4,4'-imidazolidine]-2,2',5'-trione, reference compound] | 10000 |  |  |
| CN1C(=O)Nc2ccc(Cl)cc2C12NC(=O)NC2=O (stereo not shown) [Test Compound 1, 6-Chloro-3-methyl-spiro[1,2,3,4-tetrahydroquinazoline-4,4'-imidazolidine]-2,2',5'-trione] | 56 | there was not observed any abnormal symptom | no mouse died |
| CC(C)CN1C(=O)N(C)C2(NC(=O)NC2=O)c2cc(Cl)ccc21 (stereo not shown) [Test Compound 10, 1-Isobutyl-6-chloro-3-methyl-spiro[1,2,3,4-tetrahydroquinazoline-4,4'-imidazolidine]-2,2',5'-trione] | 270 |  |  |
| CN1C(=O)Nc2ccc(Cl)cc2C12NC(=O)NC2=O (stereo not drawn) [Test Compound 2, d-6-Chloro-3-methyl-spiro[1,2,3,4-tetrahydroquinazoline-4,4'-imidazolidine]-2,2',5'-trione] | 22 | there was not observed any abnormal symptom | no mouse died |
| CN1C(=O)Nc2cc(Cl)c(Cl)cc2C12NC(=O)NC2=O (stereo not shown) [Test Compound 7, 6,7-Dichloro-3-methyl-spiro[1,2,3,4-tetrahydroquinazoline-4,4'-imidazolidine]-2,2',5'-trione] | 74 |  |  |
| CN1C(=O)Nc2ccc(Cl)cc2C12NC(=O)NC2=O (stereo not shown) [Test Compound 3, 6-Chloro-3-methyl-spiro[1,2,3,4-tetrahydroquinazoline-4,4'-imidazolidine]-2,2',5'-trione-1'-sodium salt] | 29 |  |  |
| CN1C(=O)Nc2ccc(Br)cc2C12NC(=O)NC2=O (stereo not shown) [Test Compound 6, 6-Bromo-3-methyl-spiro[1,2,3,4-tetrahydroquinazoline-4,4'-imidazolidine]-2,2',5'-trione] | 52 |  |  |

— US4762839A, “Quinazolinone copmpounds useful for the prophyloxis and treatment of diabetic complications” (priority 1985, dated 1988)
